# Like-named read-outs stand apart in the source and are kept apart here.
# Columns and labels:
# [1] = test system: hNSC; assay: MMP assay in human neural stem cells (hNSC); format: cell-based; settings: mean±SD of three experiments
# [2] = test system: HepG2 cells; assay: ROS-Glo hydrogen peroxide (ROS) assay; format: cell-based, human; settings: 2 h treatment; mean±SD of three experiments
# [3] = test system: HepG2 cells; assay: Intracellular ATP content (cell viability) assay; format: cell-based, human; settings: for IC50: 40 h treatment, mean±SD of three experiments
# [4] = test system: p53 (p53-bla HCT-116 cells); assay: p53 β-lactamase reporter gene assay; format: cell-based, human; settings: 16 h incubation; mean±SD of three experiments
# [5] = test system: Nrf2/ARE (ARE-bla HepG2 cells); assay: ARE β-lactamase reporter gene assay; format: cell-based, human
# [6] = test system: isolated rat liver mitochondria; assay: Oxygen consumption, Clark-type oxygen electrode; format: biochemical; settings: for I-ADP, % of control (O2 consumption rate): glutamate/malate driven state 3 respiration; for I-ADP, % of control (O2 consumption rate) / I-sub, % of control (O2 consumption rate) / II-ADP, % of control (O2 consumption rate) / II-sub, % of control (O2 consumption rate): isolated rat liver mitochondria; for I-sub, % of control (O2 consumption rate): glutamate/malate driven state 4 respiration; for II-ADP, % of control (O2 consumption rate): succinate-driven state 3 respiration; for II-sub, % of control (O2 consumption rate): succinate-driven state 4 respiration
# [7] = test system: HepG2 cells; assay: Oxygen consumption, Seahorse XF24 analyzer; format: cell-based, human
# [8] = test system: mitochondrial respiratory chain complex I; format: biochemical, rat
# [9] = target: T1, mitochondrial respiratory chain complex II (Rattus norvegicus, UniProt P21913+Q641Z9+Q6PCT8+Q920L2); assay: Respiratory chain complex II activity; format: biochemical; settings: tested up to 100μM
# T1 construct: Submitochondrial particles were prepared by subjecting the intact rat mitochondria, isolated as described above, to three successive freeze–thaw cycles; from tissue; host or cells: rat liver mitochondria (submitochondrial particles)
# [10] = test system: mitochondrial respiratory chain complex III; format: biochemical, rat
# [11] = test system: mitochondrial respiratory chain complex IV; format: biochemical, rat
# [12] = test system: mitochondrial respiratory chain complex V; format: biochemical, rat
# [13] = test system: HeLa cells expressing YFP-Parkin; assay: Parkin translocation assay; format: cell-based, human
# [14] = test system: HepG2 cells
# [15] = test system: HepG2 cells; settings: cited from earlier work
# [16] = test system: Caenorhabditis elegans strain PE255; assay: In vivo C. elegans ATP status assay
# [17] = test system: rat primary hepatocytes; assay: MMP assay in rat primary hepatocytes
# [18] = test system: Caenorhabditis elegans (Bristol N2); assay: C. elegans larval development and growth assay
# T1 sequence (Q920L2 35-656): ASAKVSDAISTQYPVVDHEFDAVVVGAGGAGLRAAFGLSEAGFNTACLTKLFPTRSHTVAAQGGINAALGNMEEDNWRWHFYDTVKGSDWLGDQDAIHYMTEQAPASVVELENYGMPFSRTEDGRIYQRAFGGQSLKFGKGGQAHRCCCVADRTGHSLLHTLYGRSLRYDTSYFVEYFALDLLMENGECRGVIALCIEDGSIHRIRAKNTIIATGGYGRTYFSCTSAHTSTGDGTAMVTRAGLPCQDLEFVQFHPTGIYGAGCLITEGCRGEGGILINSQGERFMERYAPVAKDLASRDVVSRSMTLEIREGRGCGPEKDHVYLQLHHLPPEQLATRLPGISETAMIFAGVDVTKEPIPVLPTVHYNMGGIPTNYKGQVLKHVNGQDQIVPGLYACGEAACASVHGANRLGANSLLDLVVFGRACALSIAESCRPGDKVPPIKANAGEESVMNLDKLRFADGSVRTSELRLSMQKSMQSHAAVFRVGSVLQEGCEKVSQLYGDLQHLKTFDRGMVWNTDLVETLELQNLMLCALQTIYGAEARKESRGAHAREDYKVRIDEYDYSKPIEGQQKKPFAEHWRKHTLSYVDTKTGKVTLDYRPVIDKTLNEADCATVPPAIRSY
# T1 sequence (P21913 31-282): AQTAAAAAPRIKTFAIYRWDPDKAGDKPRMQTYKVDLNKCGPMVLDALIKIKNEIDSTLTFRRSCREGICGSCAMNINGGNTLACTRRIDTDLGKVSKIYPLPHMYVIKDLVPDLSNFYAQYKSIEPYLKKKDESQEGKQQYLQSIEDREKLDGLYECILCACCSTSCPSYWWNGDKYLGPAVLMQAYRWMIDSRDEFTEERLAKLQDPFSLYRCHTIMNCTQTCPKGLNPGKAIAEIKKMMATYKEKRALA
# T1 sequence (Q641Z9 1-169): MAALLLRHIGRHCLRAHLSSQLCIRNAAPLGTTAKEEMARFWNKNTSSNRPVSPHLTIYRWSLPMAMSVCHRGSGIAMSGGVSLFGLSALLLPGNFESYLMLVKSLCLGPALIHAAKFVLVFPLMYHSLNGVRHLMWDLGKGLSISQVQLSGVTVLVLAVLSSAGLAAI
# T1 sequence (Q6PCT8 57-159): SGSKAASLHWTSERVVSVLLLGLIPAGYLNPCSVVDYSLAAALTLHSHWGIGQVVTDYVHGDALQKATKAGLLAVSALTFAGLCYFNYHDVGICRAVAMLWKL
smiles,measurement,setting,value
CCN1C(=CC=Cc2ccc3ccccc3[n+]2CC)C=Cc2ccccc21.[Cl-] [Pinacyanol chloride],IC50,"[1]; 1 h treatment, fresh re-sourced stocks, read-out: hNSC IC50 (MMP)",40 ± 10 nM
same,hNSC (efficacy) (MMP),[1]; % of positive control,−97.1±7.31%
same,ROS (HepG2) EC50,[2],Inactive
same,IC50,"[3]; 5 mM glucose, read-out: ATP (HepG2, glucose) IC50",10.7 ± 6.39 µM
same,"ATP (HepG2, glucose) (efficacy)","[3]; 5 mM glucose, % of positive control",−107±6.73%
same,IC50,"[3]; 10 mM galactose, read-out: ATP (HepG2, galactose) IC50",5.88 ± 2.33 µM
same,"ATP (HepG2, galactose) (efficacy)","[3]; 10 mM galactose, % of positive control",−105±4.87%
same,p53 (HCT-116) EC50,[4],Inactive
same,EC50,"[5]; 16 h incubation, mean±SD of three experiments, read-out: ARE (HepG2) EC50",1390 ± 950 nM
same,ARE (HepG2) (efficacy),[5]; % of positive control,62.8±13.4%
same,"I-ADP, % of control (O2 consumption rate)",[6]; 0.8 µM,88 (40.4) % of control
same,"I-sub, % of control (O2 consumption rate)",[6]; 0.8 µM,113 (12.6) % of control
same,"II-ADP, % of control (O2 consumption rate)",[6]; 0.8 µM,81 (60.9) % of control
same,"II-sub, % of control (O2 consumption rate)",[6]; 0.8 µM,103 (21.3) % of control
same,"I-ADP, % of control (O2 consumption rate)",[6]; 4 µM,57 (26.1) % of control
same,"I-sub, % of control (O2 consumption rate)",[6]; 4 µM,108 (12.1) % of control
same,"II-ADP, % of control (O2 consumption rate)",[6]; 4 µM,56 (42.3) % of control
same,"II-sub, % of control (O2 consumption rate)",[6]; 4 µM,79 (16.2) % of control
same,"I-ADP, % of control (O2 consumption rate)",[6]; 20 µM,31 (14.2) % of control
same,"I-sub, % of control (O2 consumption rate)",[6]; 20 µM,69 (7.7) % of control
same,"II-ADP, % of control (O2 consumption rate)",[6]; 20 µM,35 (26.2) % of control
same,"II-sub, % of control (O2 consumption rate)",[6]; 20 µM,69 (14.3) % of control
same,"I-ADP, % of control (O2 consumption rate)",[6]; 100 µM,21 (9.7) % of control
same,"I-sub, % of control (O2 consumption rate)",[6]; 100 µM,76 (11.8) % of control
same,"II-ADP, % of control (O2 consumption rate)",[6]; 100 µM,11 (7.6) % of control
same,"II-sub, % of control (O2 consumption rate)",[6]; 100 µM,27 (8.5) % of control
same,effect on mitochondrial respiration (in words),"[6]; Clark-type oxygen electrode, concentrations up to 100μM",slightly milder inhibitory effects on both glutamate/malate-driven respiration and succinate-driven respiration
same,Potential Mechanism,"[6]; mitochondrial respiration in isolated rat liver mitochondria, Clark type oxygen electrode, over tested concentrations",Inhibitor
same,"effect on oxygen consumption rate, Seahorse (in words)",[7],inhibitory patterns similar to that of rotenone
same,Activity in oxygen consumption,"[7]; Seahorse XF24, HepG2 cells, 25 mM glucose, 1, 4, 16, and 64μM",Inhibitor
same,inhibition effect on Complex I,[8]; at 4.0μM,23.6%
same,Complex I % inhibition,[8]; at 20μM,38.3±1.92 at 20μM %
same,Complex II % inhibition (activity call),[9],Inactive
same,Complex III % inhibition (activity call),[10],Inactive
same,Complex IV % inhibition (activity call),[11],Inactive
same,Complex V % inhibition (activity call),[12],Inactive
same,Parkin translocation into mitochondria (in words),[13]; 3 h,patterns similar to antimycin A and FCCP
same,Parkin recruitment,"[13]; HeLa cells stably expressing YFP-Parkin, treated for 2 h",Active
same,HepG2 (efficacy) Glucose (MMP),"[14]; 5 mM glucose, % of positive control, mean±SD of three experiments",−85.9±3.17%
same,HepG2 (efficacy) Galactose (MMP),"[14]; 10 mM galactose, % of positive control, mean±SD of three experiments",−78.9±0.48%
same,MMP assays efficacy (%) HepG2,"[14]; HepG2 cells, single number from one experiment",-89%
same,IC50,"[14]; read-out: HepG2 IC50 Galactose (MMP), 10 mM galactose, no glucose, 1 h treatment, mean±SD of three experiments",0.06 ± 0.02 µM
same,IC50,"[14]; read-out: HepG2 IC50 Glucose (MMP), 5 mM glucose, 1 h treatment, fresh re-sourced stocks, mean±SD of three experiments",0.04 ± 0.01 µM
same,IC50,"[14]; read-out: IC50 in HepG2 cells (MMP, tier-one retest), existing Tox21 10K library stock solutions, Excel Table S1",0.02 µM
same,IC50,"[14]; read-out: MMP assays IC50 (µM) HepG2, HepG2 cells, single number from one experiment",0.0155 µM
same,MMP assays efficacy (%) qHTS-HepG2,[15],-91±3%
same,IC50,"[15]; read-out: MMP assays IC50 (µM), qHTS-HepG2",0.01 µM
same,LUM: mean difference in luminescence (ATP content) relative to plate controls,[16]; 0.005 µM,0.1466
same,LUM: mean difference in luminescence (ATP content) relative to plate controls,[16]; 0.01 µM,0.1001
same,LUM: mean difference in luminescence (ATP content) relative to plate controls,[16]; 0.05 µM,0.1404
same,LUM: mean difference in luminescence (ATP content) relative to plate controls,[16]; 0.1 µM,0.3228
same,LUM: mean difference in luminescence (ATP content) relative to plate controls,[16]; 0.5 µM,1.055
same,LUM: mean difference in luminescence (ATP content) relative to plate controls,[16]; 1 µM,-0.08665
same,LUM: mean difference in luminescence (ATP content) relative to plate controls,[16]; 5 µM,3.898
same,LUM: mean difference in luminescence (ATP content) relative to plate controls,[16]; 10 µM,3.595
same,LUM: mean difference in luminescence (ATP content) relative to plate controls,[16]; 25 µM,3.9673
same,LUM: mean difference in luminescence (ATP content) relative to plate controls,[16]; 50 µM,3.294
same,LUM: mean difference in luminescence (ATP content) relative to plate controls,[16]; 75 µM,3.822
same,LUM: mean difference in luminescence (ATP content) relative to plate controls,[16]; 100 µM,4.216
same,effect on ATP content (in words),"[16]; 0.5–100μM, 24 h exposure",inhibited
same,"LEC LUM: lowest effect concentration for luminescence, a measure of nematode ATP content","[16]; C. elegans ATP, JT trend test, Bonferoni correction p<0.05",0.25 µM
same,Rat hepatocytes (efficacy) (MMP),"[17]; % of positive control, mean±SD of three experiments",−75.4±6.24%
same,MMP assays efficacy (%) Rat Hepatocytes,"[17]; rat hepatocytes, mean ± SD of three experiments",-99±26%
same,IC50,"[17]; read-out: IC50 in rat primary hepatocytes (MMP, tier-one retest), existing Tox21 10K library stock solutions, 1-h treatment, Excel Table S1",40 nM
same,IC50,"[17]; read-out: Rat hepatocytes IC50 (MMP), 1 h treatment, fresh re-sourced stocks, mean±SD of three experiments",310 ± 150 nM
same,EXT: mean difference in nematode size relative to plate controls,[18]; 0.005 µM,0.5663
same,EXT: mean difference in nematode size relative to plate controls,[18]; 0.01 µM,0.679
same,EXT: mean difference in nematode size relative to plate controls,[18]; 0.05 µM,1.058
same,EXT: mean difference in nematode size relative to plate controls,[18]; 0.1 µM,0.8774
same,EXT: mean difference in nematode size relative to plate controls,[18]; 0.5 µM,1.355
same,larval growth effect at 0.5μM,"[18]; 0.5μM, 48 h exposure",severe larval growth arrest
same,EXT: mean difference in nematode size relative to plate controls,[18]; 1 µM,1.41
same,EXT: mean difference in nematode size relative to plate controls,[18]; 5 µM,1.888
same,EXT: mean difference in nematode size relative to plate controls,[18]; 10 µM,1.689
same,EXT: mean difference in nematode size relative to plate controls,[18]; 50 µM,0.7889
same,effect on larval growth (in words),"[18]; 0.5–100μM, 48 h exposure",inhibited
same,"LEC EXT: lowest effect concentration for extinction, a measure of nematode size","[18]; C. elegans larval growth, JT trend test, Bonferoni correction p<0.05",0.005 µM
same,inhibitory effect at (concentration) on larval growth in the C. elegans assay,[18]; quoted in Discussion,0.005 µM
